# Measured values as given in ChEMBL document CHEMBL1201862, “PubChem BioAssay data set” (2004).
# Counter-ions that a name gives are not always drawn. The source made the active and inactive calls.
# Columns and labels:
# [1] = tested on: Vero; assay: Vero cell toxicity, dose response, cytotoxicity control, plate reader, cherry-pick samples (AID 687020); format: functional, cell-based; conditions: Chlorocebus sabaeus
# [2] = target: Prothrombin (Bos taurus, UniProt P00735); assay: thrombin inhibition, dose response, biochemical, fluorescence polarization, uHTS hits (AID 602369); format: functional
# [3] = target: T1, Low molecular weight phosphotyrosine protein phosphatase (Homo sapiens, UniProt P24666); format: functional; conditions: read-out: IC50_Mean
# T1 sequence (P24666 whole entry): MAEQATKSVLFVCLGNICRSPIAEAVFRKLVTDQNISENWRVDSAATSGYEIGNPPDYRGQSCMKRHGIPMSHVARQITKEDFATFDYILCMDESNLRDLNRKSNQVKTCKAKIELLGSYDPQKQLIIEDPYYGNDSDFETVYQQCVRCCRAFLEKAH
# [4] = target: 72 kDa type IV collagenase (Homo sapiens, UniProt P08253); assay: Dose Response validation of uHTS RPN11 inhibitor hits using a MMP-2 Fluorescence assay.; format: functional
# Sequence of 72 kDa type IV collagenase (P08253 whole entry): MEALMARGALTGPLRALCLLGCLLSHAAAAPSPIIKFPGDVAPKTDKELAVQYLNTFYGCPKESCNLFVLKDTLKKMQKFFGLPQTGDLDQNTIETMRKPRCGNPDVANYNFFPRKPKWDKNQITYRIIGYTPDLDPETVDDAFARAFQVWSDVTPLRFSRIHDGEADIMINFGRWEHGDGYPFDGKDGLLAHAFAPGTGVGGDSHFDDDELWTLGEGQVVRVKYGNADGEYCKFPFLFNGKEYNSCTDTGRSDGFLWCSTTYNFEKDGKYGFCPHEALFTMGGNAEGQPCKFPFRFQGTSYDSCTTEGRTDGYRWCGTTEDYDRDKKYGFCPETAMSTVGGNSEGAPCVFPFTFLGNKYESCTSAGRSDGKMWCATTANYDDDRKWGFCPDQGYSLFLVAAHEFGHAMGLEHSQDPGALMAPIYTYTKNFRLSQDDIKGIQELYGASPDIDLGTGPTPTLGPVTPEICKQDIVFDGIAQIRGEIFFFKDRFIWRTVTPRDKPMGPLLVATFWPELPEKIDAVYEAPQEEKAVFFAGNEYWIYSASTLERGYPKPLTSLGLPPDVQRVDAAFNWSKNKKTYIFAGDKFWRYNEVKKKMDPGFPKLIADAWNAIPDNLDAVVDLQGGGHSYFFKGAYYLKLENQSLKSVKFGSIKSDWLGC
# [5] = target: T1, Low molecular weight phosphotyrosine protein phosphatase; format: functional; conditions: read-out: IC50_Mean; remark: listed apart in the source
# [6] = target: 26S proteasome non-ATPase regulatory subunit 14 (Homo sapiens, UniProt O00487); assay: inhibition of proteasome subunit RPN11 – biochemical, fluorescence polarization, uHTS hits, confirmation (AID 602368); format: functional
# [7] = target: T2, Tyrosine-protein phosphatase non-receptor type 22 (Homo sapiens, UniProt Q9Y2R2); assay: LYP phosphatase inhibition for selectivity, dose response, selectivity assay for LMPTP inhibitor project, biochemical, fluorescence, LYP catalytic domain (AID 652006); format: functional; conditions: read-out: IC50_Mean
# T2 sequence (Q9Y2R2 whole entry): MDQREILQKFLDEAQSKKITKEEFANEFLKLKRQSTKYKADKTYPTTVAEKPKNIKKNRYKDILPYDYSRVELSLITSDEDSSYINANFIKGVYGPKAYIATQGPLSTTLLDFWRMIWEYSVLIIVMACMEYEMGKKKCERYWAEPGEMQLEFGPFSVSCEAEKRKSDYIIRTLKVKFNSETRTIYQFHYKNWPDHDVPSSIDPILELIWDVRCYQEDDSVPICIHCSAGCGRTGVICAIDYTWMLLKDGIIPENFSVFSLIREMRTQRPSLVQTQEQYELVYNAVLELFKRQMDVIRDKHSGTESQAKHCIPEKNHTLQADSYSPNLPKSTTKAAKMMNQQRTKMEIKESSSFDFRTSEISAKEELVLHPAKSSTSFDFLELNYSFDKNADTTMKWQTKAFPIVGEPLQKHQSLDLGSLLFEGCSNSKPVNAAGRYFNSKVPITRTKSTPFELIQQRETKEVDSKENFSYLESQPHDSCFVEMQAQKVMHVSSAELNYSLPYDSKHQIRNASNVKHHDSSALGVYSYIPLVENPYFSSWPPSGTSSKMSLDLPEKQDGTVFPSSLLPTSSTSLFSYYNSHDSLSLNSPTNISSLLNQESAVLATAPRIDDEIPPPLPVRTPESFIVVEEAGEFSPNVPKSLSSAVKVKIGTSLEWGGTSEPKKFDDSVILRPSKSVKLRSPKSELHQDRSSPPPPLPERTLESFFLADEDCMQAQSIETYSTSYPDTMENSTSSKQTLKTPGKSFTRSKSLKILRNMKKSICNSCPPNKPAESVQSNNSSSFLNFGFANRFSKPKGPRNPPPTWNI
# [8] = target: T3, Carboxy-terminal domain RNA polymerase II polypeptide A small phosphatase 1 (Homo sapiens, UniProt Q9GZU7); assay: inhibitors of CTDSP1, concentration-response testing, biochemical assay, absorbance-based, actives from ultra-high-throughput screening (AID 540297); format: functional
# T3 sequence (Q9GZU7 whole entry): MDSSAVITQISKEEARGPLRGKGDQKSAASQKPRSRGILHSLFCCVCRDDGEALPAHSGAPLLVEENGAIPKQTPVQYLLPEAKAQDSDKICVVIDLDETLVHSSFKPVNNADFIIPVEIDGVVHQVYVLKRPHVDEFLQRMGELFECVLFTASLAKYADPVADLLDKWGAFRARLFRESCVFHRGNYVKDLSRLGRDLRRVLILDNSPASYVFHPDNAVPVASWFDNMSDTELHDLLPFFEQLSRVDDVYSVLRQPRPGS
# [9] = target: T4, Coagulation factor XII (Homo sapiens, UniProt P00748); format: functional;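 further: activated factor XIIa alpha cleaving a fluorogenic AMC peptide substrate; inhibitor potency from loss of enzyme activity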
# T4 sequence (P00748 whole entry): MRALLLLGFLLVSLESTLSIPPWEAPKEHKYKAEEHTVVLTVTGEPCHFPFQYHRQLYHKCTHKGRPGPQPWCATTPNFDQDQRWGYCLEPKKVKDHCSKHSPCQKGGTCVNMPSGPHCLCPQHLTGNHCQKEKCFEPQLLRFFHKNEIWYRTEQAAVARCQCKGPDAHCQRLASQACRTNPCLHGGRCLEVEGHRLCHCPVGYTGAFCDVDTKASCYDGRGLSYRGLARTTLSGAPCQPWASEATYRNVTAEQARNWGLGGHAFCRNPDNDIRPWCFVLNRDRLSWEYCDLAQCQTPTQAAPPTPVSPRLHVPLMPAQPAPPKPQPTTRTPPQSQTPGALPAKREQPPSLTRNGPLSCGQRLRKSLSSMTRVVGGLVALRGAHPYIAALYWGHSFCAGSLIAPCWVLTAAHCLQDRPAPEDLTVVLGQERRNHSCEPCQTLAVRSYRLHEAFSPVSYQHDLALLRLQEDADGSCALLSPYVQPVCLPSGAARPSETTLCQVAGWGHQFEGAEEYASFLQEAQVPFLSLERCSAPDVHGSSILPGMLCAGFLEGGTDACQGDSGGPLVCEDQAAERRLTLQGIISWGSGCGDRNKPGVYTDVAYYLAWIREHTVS
# [10] = THP-1 cell cytotoxicity, dose response, cytotoxicity control for Vif-APOBEC3G degradation inhibitor project, THP-1 cells (AID 1117359); format: functional; conditions: Human immunodeficiency virus 1, THP-1
# [11] = Counterscreen for activators of the function of SWI/SNF related, matrix associated, actin dependent regulator of chromatin, subfamily a, member 2 (SMARCA2, BRM): Luminescence-based cell-based high throughput dose response assay to identify non-selective compounds using the VP16 reporter assay.; format: functional
# [12] = target: SWI/SNF-related matrix-associated actin-dependent regulator of chromatin subfamily A member 2 (Homo sapiens, UniProt P51531); assay: Luminescence-based cell-based high throughput dose response assay to identify activators of the function of SWI/SNF related, matrix associated, actin dependent regulator of chromatin, subfamily a, member 2 (SMARCA2, BRM).; format: functional
# Sequence of SWI/SNF-related matrix-associated actin-dependent regulator of chromatin subfamily A member 2 (P51531 whole entry): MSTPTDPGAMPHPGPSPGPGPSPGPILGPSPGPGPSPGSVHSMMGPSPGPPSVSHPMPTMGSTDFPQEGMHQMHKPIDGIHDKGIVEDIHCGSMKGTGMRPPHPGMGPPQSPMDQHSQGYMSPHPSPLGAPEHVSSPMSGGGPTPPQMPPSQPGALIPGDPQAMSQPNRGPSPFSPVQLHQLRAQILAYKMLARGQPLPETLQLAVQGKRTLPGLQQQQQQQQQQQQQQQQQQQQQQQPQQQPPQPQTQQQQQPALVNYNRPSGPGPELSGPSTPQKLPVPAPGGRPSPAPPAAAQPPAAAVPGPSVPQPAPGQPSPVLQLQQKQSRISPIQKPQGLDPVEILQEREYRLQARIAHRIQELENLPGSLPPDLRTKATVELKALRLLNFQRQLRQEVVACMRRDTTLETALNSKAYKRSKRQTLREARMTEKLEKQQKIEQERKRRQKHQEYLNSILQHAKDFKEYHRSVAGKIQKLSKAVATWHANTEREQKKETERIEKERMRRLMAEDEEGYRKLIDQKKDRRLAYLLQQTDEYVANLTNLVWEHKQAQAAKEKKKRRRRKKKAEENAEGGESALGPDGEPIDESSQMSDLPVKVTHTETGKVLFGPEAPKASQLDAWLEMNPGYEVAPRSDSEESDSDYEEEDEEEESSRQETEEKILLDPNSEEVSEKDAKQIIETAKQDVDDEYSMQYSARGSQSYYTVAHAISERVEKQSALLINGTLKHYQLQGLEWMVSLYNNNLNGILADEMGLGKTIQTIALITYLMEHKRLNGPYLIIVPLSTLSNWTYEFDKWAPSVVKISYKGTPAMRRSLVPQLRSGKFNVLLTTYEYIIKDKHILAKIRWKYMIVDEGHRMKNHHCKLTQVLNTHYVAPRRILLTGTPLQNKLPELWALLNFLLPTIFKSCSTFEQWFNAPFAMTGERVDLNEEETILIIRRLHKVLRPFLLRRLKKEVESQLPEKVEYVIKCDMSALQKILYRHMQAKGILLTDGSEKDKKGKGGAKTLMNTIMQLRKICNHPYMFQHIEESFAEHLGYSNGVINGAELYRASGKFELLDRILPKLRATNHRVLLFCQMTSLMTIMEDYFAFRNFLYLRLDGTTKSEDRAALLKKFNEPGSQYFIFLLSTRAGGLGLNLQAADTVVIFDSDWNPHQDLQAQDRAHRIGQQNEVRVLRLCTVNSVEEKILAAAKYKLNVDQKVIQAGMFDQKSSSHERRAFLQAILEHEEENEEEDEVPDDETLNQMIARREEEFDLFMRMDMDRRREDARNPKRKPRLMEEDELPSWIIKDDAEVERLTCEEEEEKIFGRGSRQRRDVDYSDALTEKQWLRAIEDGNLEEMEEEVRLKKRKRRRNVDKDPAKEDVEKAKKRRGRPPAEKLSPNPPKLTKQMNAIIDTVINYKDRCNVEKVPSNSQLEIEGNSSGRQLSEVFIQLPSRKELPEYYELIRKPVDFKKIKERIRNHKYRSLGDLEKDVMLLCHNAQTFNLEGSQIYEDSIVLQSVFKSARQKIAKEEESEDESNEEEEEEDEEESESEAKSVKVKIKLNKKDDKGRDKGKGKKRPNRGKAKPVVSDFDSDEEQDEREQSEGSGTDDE
# [13] = target: 5-hydroxytryptamine receptor 2A (Mus musculus, UniProt P35363); format: functional, cell-based;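 further: CHO-K1 cells with tagged receptor and beta-arrestin; agonist potency measured as compound-induced activation of the receptor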
# Sequence of 5-hydroxytryptamine receptor 2A (P35363 whole entry): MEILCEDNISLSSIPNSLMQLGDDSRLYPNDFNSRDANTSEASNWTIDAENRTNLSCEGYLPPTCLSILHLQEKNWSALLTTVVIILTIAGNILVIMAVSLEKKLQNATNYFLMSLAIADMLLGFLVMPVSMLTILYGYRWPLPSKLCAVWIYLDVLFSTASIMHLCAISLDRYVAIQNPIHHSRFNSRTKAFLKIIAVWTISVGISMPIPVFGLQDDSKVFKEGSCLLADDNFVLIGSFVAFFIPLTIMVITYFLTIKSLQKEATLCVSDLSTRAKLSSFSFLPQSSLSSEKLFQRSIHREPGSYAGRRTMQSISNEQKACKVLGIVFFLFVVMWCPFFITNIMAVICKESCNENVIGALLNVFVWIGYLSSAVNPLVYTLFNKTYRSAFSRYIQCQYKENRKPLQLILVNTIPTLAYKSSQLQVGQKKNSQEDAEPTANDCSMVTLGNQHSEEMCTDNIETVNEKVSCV
# [14] = target: Mu-type opioid receptor (Homo sapiens, UniProt P35372); format: functional, cell-based;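 further: U2OS cells with beta-arrestin recruitment to OPRM1 by beta-gal complementation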
# Sequence of Mu-type opioid receptor (P35372 whole entry): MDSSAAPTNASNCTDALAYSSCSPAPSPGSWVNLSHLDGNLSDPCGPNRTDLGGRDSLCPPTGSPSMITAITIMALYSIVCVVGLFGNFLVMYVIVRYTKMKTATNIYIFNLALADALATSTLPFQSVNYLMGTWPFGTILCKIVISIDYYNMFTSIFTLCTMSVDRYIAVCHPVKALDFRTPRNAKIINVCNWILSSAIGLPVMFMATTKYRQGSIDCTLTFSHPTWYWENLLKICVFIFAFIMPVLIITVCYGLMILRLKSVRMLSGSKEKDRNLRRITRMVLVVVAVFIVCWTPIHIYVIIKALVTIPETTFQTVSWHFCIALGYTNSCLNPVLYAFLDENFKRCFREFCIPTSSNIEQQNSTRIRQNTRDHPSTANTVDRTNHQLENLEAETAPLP
# [15] = miR-122 activators in hepatoma reporter cells, dose response, cell-based, Huh7 psiCHECK-miR122, Renilla luciferase, cherry-picked (AID 651956); format: functional;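 further: huh7 hepatoma cells stably carrying a psiCHECK-2 miR-122 sensor plasmid; renilla luciferase signal reporting endogenous miR-122 activity after 48 h compound exposure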
# [16] = target: FAD-linked sulfhydryl oxidase ALR (Homo sapiens, UniProt P55789); assay: inhibitors of human ALR sulfhydryl oxidase, dose response, biochemical, H2O2 detection, luminescence, cherry-pick (AID 493248)
# Sequence of FAD-linked sulfhydryl oxidase ALR (P55789 whole entry): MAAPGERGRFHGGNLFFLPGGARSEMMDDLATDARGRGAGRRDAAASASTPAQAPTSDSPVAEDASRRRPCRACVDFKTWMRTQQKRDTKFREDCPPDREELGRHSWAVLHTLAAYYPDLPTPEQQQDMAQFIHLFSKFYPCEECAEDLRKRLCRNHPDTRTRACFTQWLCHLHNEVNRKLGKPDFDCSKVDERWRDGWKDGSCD
# [17] = MDA-MB-231 cell growth inhibition, dose response, cytotoxicity control for RAD54 inhibitor project, CellTiter-Glo luminescence, cherry-pick (AID 651692); format: functional, cell-based
# [18] = control 3'UTR Renilla luciferase suppression, dose response, counter-screen for Shn3 inhibitor project, cell-based, Clone20-Shn3RL, cherry-picked (AID 624133); format: functional
# [19] = Luminescence Cell-Based Dose Retest to Confirm Inhibitors of Cancer Stem Cells. [Related pubchem assays (depositor defined):AID2717, AID2721]; format: functional; conditions: Homo sapiens
# [20] = target: T5, DNA repair and recombination protein RAD54-like (Homo sapiens, UniProt Q92698); assay: inhibitors of human RAD54 branch migration, confirmation, biochemical, fluorescence, cherry-picked samples, dose series (AID 651657); format: functional
# T5 sequence (Q92698 whole entry): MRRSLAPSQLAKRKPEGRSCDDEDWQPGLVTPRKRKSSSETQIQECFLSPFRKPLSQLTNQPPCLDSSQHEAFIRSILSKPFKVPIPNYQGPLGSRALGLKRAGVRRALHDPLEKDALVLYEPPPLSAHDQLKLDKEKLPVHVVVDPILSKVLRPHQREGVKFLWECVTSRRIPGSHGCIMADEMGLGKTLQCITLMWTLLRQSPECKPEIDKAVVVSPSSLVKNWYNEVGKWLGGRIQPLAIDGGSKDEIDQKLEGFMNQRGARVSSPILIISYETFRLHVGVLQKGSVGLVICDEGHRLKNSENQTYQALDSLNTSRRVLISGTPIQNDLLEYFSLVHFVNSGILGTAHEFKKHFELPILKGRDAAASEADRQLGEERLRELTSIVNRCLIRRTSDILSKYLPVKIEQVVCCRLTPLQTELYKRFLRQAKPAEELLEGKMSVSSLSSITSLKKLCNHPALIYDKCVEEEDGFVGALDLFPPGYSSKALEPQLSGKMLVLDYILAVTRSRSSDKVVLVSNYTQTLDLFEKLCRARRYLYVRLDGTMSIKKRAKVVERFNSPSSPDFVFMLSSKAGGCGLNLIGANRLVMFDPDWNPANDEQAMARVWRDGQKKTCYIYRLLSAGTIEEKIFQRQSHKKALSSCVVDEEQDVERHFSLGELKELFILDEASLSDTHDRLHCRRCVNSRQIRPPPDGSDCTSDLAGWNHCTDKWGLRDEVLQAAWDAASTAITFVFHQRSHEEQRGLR
# [21] = DNA binding of candidate compounds, dose response, artefact control for RAD54 inhibitor project, biochemical, fluorescence polarization, cherry-pick (AID 651673); format: functional
# [22] = HepG2 cell cytotoxicity, dose response, cytotoxicity control for Shn3 inhibitor project, CellTiter-Glo, cherry-picked (AID 624134); format: functional, cell-based
# [23] = target: T6, DNA repair protein RAD52 homolog (Homo sapiens, UniProt P43351); format: functional, biochemical
# T6 sequence (P43351 whole entry): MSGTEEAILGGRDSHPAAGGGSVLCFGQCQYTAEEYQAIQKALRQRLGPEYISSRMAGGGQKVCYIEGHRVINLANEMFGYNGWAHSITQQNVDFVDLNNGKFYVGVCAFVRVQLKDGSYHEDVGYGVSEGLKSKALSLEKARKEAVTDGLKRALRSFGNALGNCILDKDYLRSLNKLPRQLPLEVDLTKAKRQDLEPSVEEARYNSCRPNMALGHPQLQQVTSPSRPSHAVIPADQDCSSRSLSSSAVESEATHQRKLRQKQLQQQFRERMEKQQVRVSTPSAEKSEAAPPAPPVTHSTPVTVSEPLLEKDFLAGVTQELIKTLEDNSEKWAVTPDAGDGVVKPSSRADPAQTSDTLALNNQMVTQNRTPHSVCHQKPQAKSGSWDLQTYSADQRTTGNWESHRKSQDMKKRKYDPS
# [24] = cytotoxicity in HEK-293T cells, dose response, cytotoxicity control for TCR NF-kB inhibitor project, luminescence, T-cell screen hits (AID 489026); format: functional, cell-based;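 further: cells exposed to compound about 14 hours before the viability readout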
# [25] = Shn3 3'UTR reporter inhibitors, dose response, cell-based, Clone20 osteoblasts, firefly luciferase, cherry-picked (AID 624132); format: functional;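 further: firefly luciferase luminescence from reporter carrying the Shn3 3'UTR in osteoblasts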
# [26] = target: Platelet-activating factor acetylhydrolase (Homo sapiens, UniProt Q13093); assay: Late stage assay provider results from the probe development effort to identify inhibitors of plasma platelet activating factor acetylhydrolase (pPAFAH): fluorescence-based dose response biochemical gel-based competitive Activity-Based Protein Profiling (ABPP) inhibition of human pPAFAH.; format: functional, cell-free
# Sequence of Platelet-activating factor acetylhydrolase (Homo sapiens, UniProt Q13093) (Q13093 whole entry, the tested form may be a part): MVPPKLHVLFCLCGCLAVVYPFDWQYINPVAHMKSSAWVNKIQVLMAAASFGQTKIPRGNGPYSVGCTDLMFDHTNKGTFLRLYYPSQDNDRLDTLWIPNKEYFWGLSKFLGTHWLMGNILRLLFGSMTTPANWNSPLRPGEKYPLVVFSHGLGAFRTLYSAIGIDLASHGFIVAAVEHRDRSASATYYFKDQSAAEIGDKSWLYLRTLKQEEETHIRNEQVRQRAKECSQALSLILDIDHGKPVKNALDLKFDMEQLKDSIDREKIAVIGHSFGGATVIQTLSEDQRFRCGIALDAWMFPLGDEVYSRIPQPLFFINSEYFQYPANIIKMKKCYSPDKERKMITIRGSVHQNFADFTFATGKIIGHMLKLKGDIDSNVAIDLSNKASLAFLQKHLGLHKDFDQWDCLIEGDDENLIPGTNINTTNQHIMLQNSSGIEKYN
# [27] = target: Disintegrin and metalloproteinase domain-containing protein 17 (Homo sapiens, UniProt P78536); assay: exosite inhibitors of ADAM17, dose response, biochemical (AID 743260)
# Sequence of Disintegrin and metalloproteinase domain-containing protein 17 (P78536 whole entry, the tested form may be a part): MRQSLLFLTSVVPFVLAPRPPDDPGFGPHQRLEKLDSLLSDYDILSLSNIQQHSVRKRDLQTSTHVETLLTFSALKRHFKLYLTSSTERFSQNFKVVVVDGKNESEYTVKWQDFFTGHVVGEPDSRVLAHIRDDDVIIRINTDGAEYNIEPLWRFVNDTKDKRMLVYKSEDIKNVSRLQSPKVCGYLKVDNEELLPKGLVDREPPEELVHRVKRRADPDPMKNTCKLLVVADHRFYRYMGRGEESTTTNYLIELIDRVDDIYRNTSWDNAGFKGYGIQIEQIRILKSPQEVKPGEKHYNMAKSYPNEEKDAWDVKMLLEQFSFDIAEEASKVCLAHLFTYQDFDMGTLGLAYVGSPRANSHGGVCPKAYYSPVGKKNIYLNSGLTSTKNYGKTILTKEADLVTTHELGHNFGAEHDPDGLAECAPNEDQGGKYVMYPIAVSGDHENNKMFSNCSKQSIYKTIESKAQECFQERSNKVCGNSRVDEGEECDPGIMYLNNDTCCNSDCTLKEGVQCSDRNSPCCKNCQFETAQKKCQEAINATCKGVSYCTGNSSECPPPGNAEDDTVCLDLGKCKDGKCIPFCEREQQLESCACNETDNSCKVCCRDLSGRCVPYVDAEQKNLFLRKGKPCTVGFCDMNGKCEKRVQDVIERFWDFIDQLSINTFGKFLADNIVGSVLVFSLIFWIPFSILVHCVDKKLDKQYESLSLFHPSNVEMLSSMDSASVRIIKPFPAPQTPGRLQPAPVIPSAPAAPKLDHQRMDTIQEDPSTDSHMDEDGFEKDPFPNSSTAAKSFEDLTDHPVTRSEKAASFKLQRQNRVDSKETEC
# [28] = ADAM10 protease inhibitors, dose response, selectivity assay for ADAM17 exosite inhibitor project, biochemical, FRET peptide substrate, recombinant human ADAM10 (AID 743259);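 further: ADAM10 enzyme cleaving a FRET peptide substrate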
# [29] = target: Platelet-activating factor acetylhydrolase (Mus musculus, UniProt Q60963); assay: Late stage assay provider results from the probe development effort to identify inhibitors of pPAFAH: fluorescence-based dose-response biochemical gel-based competitive Activity-Based Protein Profiling (ABPP) assay for SAR compounds.; format: functional
# Sequence of Platelet-activating factor acetylhydrolase (Mus musculus, UniProt Q60963) (Q60963 whole entry): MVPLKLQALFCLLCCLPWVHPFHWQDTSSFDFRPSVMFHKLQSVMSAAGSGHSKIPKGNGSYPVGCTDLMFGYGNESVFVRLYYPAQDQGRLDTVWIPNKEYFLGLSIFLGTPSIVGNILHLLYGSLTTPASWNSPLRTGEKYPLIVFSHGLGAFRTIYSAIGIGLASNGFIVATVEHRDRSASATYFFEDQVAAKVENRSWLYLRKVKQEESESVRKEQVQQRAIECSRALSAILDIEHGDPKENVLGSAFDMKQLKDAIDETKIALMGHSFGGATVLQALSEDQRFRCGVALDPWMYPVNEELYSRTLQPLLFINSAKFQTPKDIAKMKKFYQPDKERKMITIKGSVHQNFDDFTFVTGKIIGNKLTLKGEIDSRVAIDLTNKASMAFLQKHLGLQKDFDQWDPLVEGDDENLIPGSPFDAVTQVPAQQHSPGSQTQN
structure (smiles),measurement,setting,value
Cc1cc(F)ccc1C(O)c1nc(-c2ccccc2C(F)(F)F)c[nH]1 (centres undefined),AC50,[1],33.5 µM (active)
O=C(/C=C/c1ccccc1Cl)Nc1ccc2c(c1)C(=O)NC2=O,IC50,[2],61.6 µM (active)
same,IC50,[3],15.8 µM (active)
same,IC50,[4],12 µM (active)
same,IC50,[5],12 µM (active)
same,IC50,[6],17.9 µM (active)
same,IC50,[7],29 µM (inactive)
same,IC50,[8],3.73 µM (active)
CC1(C)CC(=O)C(=NNc2ccc(Br)cc2)C(=O)C1,IC50,[9],> 50 µM (inactive)
same,CC50,[10],> 40 µM (active)
same,EC50,[11],> 91.1 µM (inactive)
same,EC50,[12],> 91.1 µM (inactive)
Cc1ccc(C(=O)N/C(=C/c2ccccc2)C(=O)NC(Cc2ccccc2)C(=O)O)cc1 (centres undefined),EC50,[13],76.1 µM (inactive)
same,EC50,[14],92.5 µM (inactive)
CNC(=O)C[C@H]1CC[C@@H]2[C@@H](COc3ccc(NC(=O)Nc4ccc(Cl)cc4)cc3C(=O)N2C)O1,AC50,[15],29 µM (active)
COc1cc(NS(C)(=O)=O)ccc1Nc1c2ccccc2nc2ccccc12 [AMSACRINE HYDROCHLORIDE],AC50,[16],16 µM (active)
same,AC50,[17],23.3 µM (active)
same,AC50,[18],7.09 µM (active)
same,AC50,[19],0.91 µM (active)
same,AC50,[20],11.6 µM (active)
same,AC50,[21],39.4 µM (active)
same,AC50,[22],18.9 µM (active)
same,AC50,[23],6.83 µM (active)
same,IC50,[24],> 80 µM (inactive)
same,AC50,[25],1.32 µM (active)
Cc1cc(N2CCN(C(=O)Oc3ccc(-c4ccccc4)cn3)CC2)c2ccccc2n1,IC50,[26],0.006 µM (active)
same,IC50,[27],> 69.4 µM (inactive)
same,IC50,[28],> 69.4 µM (inactive)
same,IC50,[29],0.031 µM (active)
